Assays:
Assay in all cases: Transcription accelerating activity through RARs (PLAP reporter in COS-1 cells)
Type in all cases: cell-based
Settings in all cases: relative to ED30 of all-trans retinoic acid = 1, ED30 = concentration giving 30% of activity induced by 1 μM all-trans retinoic acid
RAR-β = biological target: T1, RAR-β (Homo sapiens, UniProt P10826)
T1 construct: expressed in transfected cells; host or cells: COS-1 (African green monkey kidney cells), transient lipofection
T1 sequence (P10826 1-455): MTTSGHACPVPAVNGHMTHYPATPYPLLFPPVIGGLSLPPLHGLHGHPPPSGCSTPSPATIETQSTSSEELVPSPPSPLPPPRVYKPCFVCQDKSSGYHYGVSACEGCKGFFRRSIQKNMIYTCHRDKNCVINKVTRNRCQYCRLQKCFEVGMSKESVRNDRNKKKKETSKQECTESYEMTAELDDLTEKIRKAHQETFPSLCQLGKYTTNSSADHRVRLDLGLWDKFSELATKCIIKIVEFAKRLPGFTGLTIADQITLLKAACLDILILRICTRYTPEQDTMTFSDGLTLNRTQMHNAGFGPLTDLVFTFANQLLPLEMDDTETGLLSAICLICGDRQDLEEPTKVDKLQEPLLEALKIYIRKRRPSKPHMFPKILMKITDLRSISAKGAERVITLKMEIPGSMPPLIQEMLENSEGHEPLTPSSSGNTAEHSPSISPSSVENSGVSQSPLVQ
Text: (§1) Measurement of the Activities of Accelerating Trans-cription Through RARs
(§2) Human RAR Expression Vectors and secretory alkaline phosphatase (PLAP) gene vectors (PLAP vectors) containing in a state integrated into the upstream a competent sequence whose expression is […] through binding with RAR depending on a ligand were temporarily transferred into COS-1 (African green monkey kidney cells), and the PLAP which had been produced depending on a ligand and secreted into a culture medium was analyzed by the chemiluminescence method to determine the transcription-accelerating activity of each compound. Further, the selectivity of each compound among RARs was determined by comparing the transcription accelerating activities of the compound for the receptors with each other.
(§3) On a 60-mm culture dish were scattered 2.5×10^4 COS-1 cells. Four days after, human RAR α, β and γ expression vectors and PLAP vectors were transferred into the cells each in an amount of 4 μg by the lipofection method. Another day after, the resulting cells were recovered, and put on a 96-well culture plate in an amount of 2×10^4 per unit well. Four hours after, the cells were put on a medium containing charcoal-treated fetal bovine serum, followed by the addition of a dilution of all-trans retinoic acid or a test compound. After the lapse of 36 hours, the supernatant was recovered and the resulting samples were treated at 65° C. for 10 minutes to eliminate the non-specific activity. 15 μl of each sample was mixed with 60 μl of a 28 mM sodium carbonate buffer(pH10), followed by the addition of 75 μl of Smilight (trade name, a product of Sumitomo Metal Industries, Ltd., substrate for chemiluminescence). The resulting mixture was reacted at 37° C. for 30 minutes and the intensity of luminescence was determined. The compounds which will be described below induced the transcription activities of RARs dependently on the concentration.

RAR-α = biological target: T2, RAR-α (Homo sapiens, UniProt P10276)
T2 construct: expressed in transfected cells; host or cells: COS-1 (African green monkey kidney cells), transient lipofection
T2 sequence (P10276 1-462): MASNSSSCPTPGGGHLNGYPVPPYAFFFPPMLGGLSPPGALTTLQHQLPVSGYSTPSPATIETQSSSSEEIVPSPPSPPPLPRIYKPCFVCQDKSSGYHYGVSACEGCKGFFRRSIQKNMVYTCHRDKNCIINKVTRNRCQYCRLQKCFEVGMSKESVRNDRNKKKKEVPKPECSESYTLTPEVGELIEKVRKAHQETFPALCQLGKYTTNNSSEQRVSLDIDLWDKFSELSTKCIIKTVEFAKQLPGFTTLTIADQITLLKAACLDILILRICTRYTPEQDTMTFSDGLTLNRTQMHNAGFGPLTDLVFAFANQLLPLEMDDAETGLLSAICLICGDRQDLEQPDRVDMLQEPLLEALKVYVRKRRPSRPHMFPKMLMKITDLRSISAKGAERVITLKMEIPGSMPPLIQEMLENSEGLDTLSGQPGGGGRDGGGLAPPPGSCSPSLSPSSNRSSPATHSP
Text: as §1, §2, §3

RAR-γ = biological target: T3, RAR-γ (Homo sapiens, UniProt P13631)
T3 construct: expressed in transfected cells; host or cells: COS-1 (African green monkey kidney cells), transient lipofection
T3 sequence (P13631 1-454): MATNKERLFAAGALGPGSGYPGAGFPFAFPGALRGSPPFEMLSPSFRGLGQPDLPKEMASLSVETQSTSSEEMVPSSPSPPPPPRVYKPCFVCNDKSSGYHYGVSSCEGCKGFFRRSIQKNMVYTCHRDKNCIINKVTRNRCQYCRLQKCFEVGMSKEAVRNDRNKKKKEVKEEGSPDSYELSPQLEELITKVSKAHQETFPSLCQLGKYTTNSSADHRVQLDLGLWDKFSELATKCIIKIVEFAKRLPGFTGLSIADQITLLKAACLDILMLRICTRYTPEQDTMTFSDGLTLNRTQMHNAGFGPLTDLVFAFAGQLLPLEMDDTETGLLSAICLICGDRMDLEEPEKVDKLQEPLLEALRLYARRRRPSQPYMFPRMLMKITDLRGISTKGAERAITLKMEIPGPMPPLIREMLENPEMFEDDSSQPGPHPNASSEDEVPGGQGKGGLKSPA
Text: as §1, §2, §3

| SMILES | Transcription accelerating activity Relative ED30 RAR-β (RAR-β) | Transcription accelerating activity Relative ED30 RAR-α (RAR-α) | Transcription accelerating activity Relative ED30 RAR-γ (RAR-γ) |
| --- | --- | --- | --- |
| O=C(O)c1ccc(-c2ccc(-c3cc4c(F)ccc(F)c4o3)[nH]2)cc1 [Example 27, 4-{2-[5-(4,7-Difluorobenzofuran-2-yl)pyrrolyl]}benzoic acid] | 170 | 0.63 | 1000 |
| O=C(O)c1ccc(-c2ccc(-c3cc4c(F)ccc(Cl)c4o3)[nH]2)cc1 [Example 42, 4-{2-[5-(4-Fluoro-7-chlorobenzofuran-2-yl)pyrrolyl]}benzoic acid] | 91 | 0.33 | 790 |
| Cc1c(-c2ccc(-c3ccc(C(=O)O)cc3)[nH]2)oc2c(Cl)ccc(Cl)c12 [Example 46, 4-{2-[5-(4,7-Dichloro-3-methylbenzofuran-2-yl)pyrrolyl]}benzoic acid] | 14 | 0.63 | 240 |
| Cc1ccc(C)c2c(C)c(-c3ccc(-c4ccc(C(=O)O)cc4)[nH]3)oc12 [Example 47, 4-{2-[5-(3,4,7-Trimethylbenzofuran-2-yl)pyrrolyl]}benzoic acid] | 2.4 | 0.80 | 41 |
| Cc1cc(C)c2oc(-c3ccc(-c4ccc(C(=O)O)cc4)[nH]3)cc2c1 [Example 50, 4-{2-[5-(5,7-Dimethylbenzofuran-2-yl)pyrrolyl]}benzoic acid] | 280 | 0.38 | 710 |
| Cc1ccc(Cl)c2sc(-c3ccc(-c4ccc(C(=O)O)cc4)[nH]3)cc12 [Example 75, 4-{2-[5-(7-Chloro-4-methylbenzothiophen-2-yl)pyrrolyl]}benzoic acid] | 150 | 0.80 | 2000 |
| Cc1ccc(C)c2sc(-c3ccc(-c4ccc(C(=O)O)cc4)[nH]3)cc12 [Example 77, 4-{2-[5-(4,7-Dimethylbenzothiophen-2-yl)pyrrolyl]}benzoic acid] | 65 | 0.35 | 130 |
| CCc1ccc(OC)c2ccc(-c3ccc(-c4ccc(C(=O)O)cc4)[nH]3)cc12 [Example 90, 4-{2-[5-(5-Methoxy-8-ethylnaphthalen-2-yl)pyrrolyl]}benzoic acid] | 450 | 3.1 | 1400 |
| Cc1cc(C)c2cc(-c3ccc(-c4ccc(C(=O)O)cc4)[nH]3)oc2c1C [Example 113, 4-{2-[5-(4,6,7-Trimethylbenzofuran-2-yl)pyrrolyl]}benzoic acid] | 24 | 0.80 | 150 |
| Cc1ccc(C)c2c1C=C(c1ccc(-c3ccc(C(=O)O)cc3)[nH]1)CO2 [Example 127, 4-{2-[5-(5,8-Dimethyl-2H-chromen-3-yl)pyrrolyl]}benzoic acid] | 240 | 1.8 | 3600 |

Continued, values first:

| Transcription accelerating activity Relative ED30 RAR-β (RAR-β) | Transcription accelerating activity Relative ED30 RAR-α (RAR-α) | Transcription accelerating activity Relative ED30 RAR-γ (RAR-γ) | SMILES |
| --- | --- | --- | --- |
| 26 | 0.17 | 430 | Cc1ccc(Cl)c2oc(-c3ccc(-c4ccc(C(=O)O)cc4)[nH]3)cc12 [Example 53, 4-{2-[5-(7-Chloro-4-methylbenzofuran-2-yl)pyrrolyl]}benzoic acid] |
| 31 | 0.20 | 120 | CCc1cccc2cc(-c3ccc(-c4ccc(C(=O)O)cc4)[nH]3)oc12 [Example 55, 4-{2-[5-(7-Ethylbenzofurn-2-yl)pyrrolyl]}benzoic acid] |
| 110 | 0.72 | 750 | O=C(O)c1ccc(-c2ccc(-c3cc4c(Cl)cccc4o3)[nH]2)cc1 [Example 60, 4-{2-[5-(4-Chlorobenzofuran-2-yl)pyrrolyl]}benzoic acid] |
| 210 | 0.47 | 790 | Cc1ccc(F)c2cc(-c3ccc(-c4ccc(C(=O)O)cc4)[nH]3)oc12 [Example 110, 4-{2-[5-(4-Fluoro-7-methylbenzofuran-2-yl)pyrrolyl]}benzoic acid] |
| 1050 | 4.4 | 2400 | Cc1cccc2c1C=C(c1ccc(-c3ccc(C(=O)O)cc3)[nH]1)CO2 [Example 129, 4-{2-[5-(5-Methyl-2H-chromen-3-yl)pyrrolyl]}benzoic acid] |
| 250 | 3.2 | 780 | CC1=CCOc2ccc(-c3ccc(-c4ccc(C(=O)O)cc4)[nH]3)cc21 [Example 133, 4-{2-[5-(4-Methyl-2H-chromen-6-yl)pyrrolyl]}benzoic acid] |
